# Results: patent US8697708B2, “Azabenzothiazole compounds, compositions and methods of use” (F. Hoffmann-La Roche AG, priority 2010, dated 2014)
# Counter-ions that a name gives are not always drawn.
# Molecular target: TYK2 (Homo sapiens (Human), UniProt P29597)
# Experiment: JAK1, JAK2 and TYK2 Inhibition Assay Protocol (Example A): TYK2 kinase domain, Caliper LabChip peptide phosphorylation
# Format: biochemical
# Settings: isolated TYK2 kinase domain, 1 nM enzyme, 25 μM ATP, Morrison tight binding model
# Description: The activity of the isolated JAK1, JAK2 or TYK2 kinase domain was measured by monitoring phosphorylation of a peptide derived from JAK3 (Val-Ala-Leu-Val-Asp-Gly-Tyr-Phe-Arg-Leu-Thr-Thr) fluorescently labeled on the N-terminus with 5-carboxyfluorescein using the Caliper LabChip technology (Caliper Life Sciences, Hopkinton, Mass.). […] Reactions were incubated at 22° C. in 384-well polypropylene microtiter plates for 30 minutes and then stopped by addition of 25 μL of an EDTA containing solution (100 mM Hepes pH 7.2, 0.015% Brij-35, 150 mM EDTA), resulting in a final EDTA concentration of 50 mM. After termination of the kinase reaction, the proportion of phosphorylated product was determined as a fraction of total peptide substrate using the Caliper LabChip 3000 according to the manufacturer's specifications. Ki values were then determined using the Morrison tight binding model. Morrison, J. F., Biochim. Biophys. Acta. 185:269-296 (1969); William, J. W. and Morrison, J. F., Meth. Enzymol., 63:437-467 (1979).
# TYK2, sequence (P29597 897-1176): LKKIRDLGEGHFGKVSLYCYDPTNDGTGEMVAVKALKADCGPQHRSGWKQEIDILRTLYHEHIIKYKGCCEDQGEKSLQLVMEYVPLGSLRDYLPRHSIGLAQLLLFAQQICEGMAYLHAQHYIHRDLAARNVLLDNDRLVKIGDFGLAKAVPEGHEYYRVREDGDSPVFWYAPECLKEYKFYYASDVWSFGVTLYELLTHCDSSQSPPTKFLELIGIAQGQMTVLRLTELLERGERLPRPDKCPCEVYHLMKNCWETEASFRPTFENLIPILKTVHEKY
row,SMILES,Ki
1,"O=C(Nc1ncnc2nc(-c3c(Cl)cccc3Cl)sc12)C1CC1 [Example 24, N-(2-(2,6-dichlorophenyl)thiazolo[4,5-d]pyrimidin-7-yl)cyclopropanecarboxamide]",6.2 nM
2,"Cc1cc(Nc2nccc3nc(-c4c(Cl)cc(C5CC5)cc4Cl)sc23)ncn1 [Example 138, [2-(2,6-Dichloro-4-cyclopropylphenyl)thiazolo[5,4-c]pyridin-4-yl]-(6-methylpyrimidin-4-yl)-amine]",4.1 nM
3,"N#Cc1cc(Cl)c(-c2nc3c(F)cnc(NC(=O)C4CC4)c3s2)c(Cl)c1 [Example 213, Cyclopropane-carboxylic acid [2-(2,6-dichloro-4-cyano-phenyl)-7-fluorothiazolo[5,4-c]pyridin-4-yl]-amide]",1.5 nM
4,"Cc1cc(Nc2nccc3nc(-c4ccccc4Cl)sc23)nc(C)n1 [Example 56, 2-(2-chlorophenyl)-N-(2,6-dimethylpyrimidin-4-yl)thiazolo[5,4-c]pyridin-4-amine]",8.6 nM
5,"O=C(CO)Nc1nccc2nc(-c3c(Cl)cccc3Cl)sc12 [Example 10, N-(2-(2,6-Dichlorophenyl)thiazolo[5,4-c]pyridin-4-yl)-2-hydroxyacetamide]",23 nM
6,"CCc1cc(Nc2nccc3nc(-c4c(Cl)cc(C(N)=O)cc4Cl)sc23)ncn1 [Example 129, 3,5-Dichloro-4-[4-(6-ethylpyrimidin-4-ylamino)thiazolo[5,4-c]pyridin-2-yl]-benzamide]",1.6 nM
7,"O=C(Nc1nccc2nc(-c3c(F)cccc3Cl)sc12)NC1CC1 [Example 16, 1-(2-(2-Chloro-6-fluorophenyl)thiazolo[5,4-c]pyridin-4-yl)-3-cyclopropylurea]",1.4 nM

# These reach a lower Ki. Values come first.
row,Ki,SMILES
1,0.3 nM,"OCc1ccnc(Nc2nccc3nc(-c4c(Cl)cccc4Cl)sc23)c1 [Example 18, (2-(2-(2,6-dichlorophenyl)thiazolo[5,4-c]pyridin-4-ylamino)pyridin-4-yl)methanol]"
2,0.5 nM,"O=C(Nc1nccc2nc(-c3c(Cl)cccc3Cl)sc12)C1CC1 [Example 2, N-(2-(2,6-Dichlorophenyl)thiazolo[5,4-c]pyridin-4-yl)cyclopropanecarboxamide]"
3,0.8 nM,"Cc1cc(Nc2nccc3nc(-c4c(C#N)cc(C#N)cc4C#N)sc23)nc(C)n1 [Example 227, 2-(4-(2,6-dimethylpyrimidin-4-ylamino)thiazolo[5,4-c]pyridin-2-yl)benzene-1,3,5-tricarbonitrile]"
4,0.3 nM,"N#Cc1cccc(F)c1-c1nc2c(C#N)cnc(Nc3cc(N)ncn3)c2s1 [Example 224, 4-(6-aminopyrimidin-4-ylamino)-2-(2-cyano-6-fluorophenyl) thiazolo[5,4-c] pyridine-7-carbonitrile]"
5,0.4 nM,"N#Cc1cnc(Nc2cc(N)ncn2)c2sc(-c3c(F)cccc3Cl)nc12 [Example 223, 4-(6-aminopyrimidin-4-ylamino)-2-(2-chloro-6-fluorophenyl) thiazolo[5,4-c] pyridine-7-carbonitrile]"
6,1 nM,"Cc1cc(Nc2nccc3nc(-c4c(Cl)cc(CO)cc4Cl)sc23)ncn1 [Example 22, {3,5-Dichloro-4-[4-(6-methyl-pyrimidin-4-ylamino)-thiazolo[5,4-c]pyridin-2-yl]-phenyl}-methanol]"
7,0.5 nM,"Cc1nc(CO)cc(Nc2nccc3nc(-c4c(Cl)cccc4C#N)sc23)n1 [Example 236, 3-Chloro-2-[4-(6-hydroxy-methyl-2-methyl-pyrimidin-4-ylamino)-thiazolo[5,4-c]pyridin-2-yl]-benzonitrile hydrochloride salt]"
